Consider one compound from ChEMBL document CHEMBL4482315, “In vivo imaging of sulfotransferases” (2013).

Active and inactive are the calls of the source. The rule behind the calls is not given here.

The subject of the assay is Rattus norvegicus. Put plainly: In-vivo substrate activity at SULT1A in brain of Sprague-Dawley rat with renal hypertension a at 0.5 to 2 mCi dosed via bolus injection measured after 60 mins post dose by microPET imaging method. It is filed as functional, organism-based. The note with it: tested as the 18F-labelled form.

For the compound `O=[N+]([O-])c1cc(O)ccc1F`, the outcome was Active.
